Laboratory results from patent publication US9518974B2, “Sensor system for detecting organophosphorus residues by inducing coagulation of gold nanoparticles” (priority 2014, dated 2016).

Molecular target: EGFP (Aequorea victoria, UniProt P42212, F64L/H231L/S65T)
Assay: Influence of organophosphorus pesticide on activity (fluorescence) of EGFP
Conditions: pesticide 10 ppb to 10 ppm, excitation 480 nm, emission 510 nm, control 10% methanol

Structure (SMILES): CCOP(=O)(Sc1ccccc1)Sc1ccccc1 [edifenphos]
- intensity of fluorescence of EGFP: the same results

Structure (SMILES): CC(C)OP(=O)(OC(C)C)SCc1ccccc1 [iprobenfos]
- intensity of fluorescence of EGFP: the same results
